Results as given in patent US9624195B2, “Isoquinoline compounds” (Gilead Sciences, Inc., priority 2014, dated 2017).
Read-outs that look alike come from different tables or passages of the source.

Assays:
Type in all cases: cell-based
[1] = system: HIV-1 reverse transcriptase mutant K103N; assay: High throughput cytopathic effect assay in MT-4 cells, HIV-1 RT mutant K103N; conditions: for EC50: Human immunodeficiency virus 1, MT4, read-out: MT4 EC50 (nM) against K103N; for FC against mutant K103N: fold change of EC50, K103N versus w.t. assay 2
Excerpt: (§1) Compounds were screened in a miniaturized, high throughput cytopathic effect assay for activity against HIV-1 HBX2 (wild type) and HIV-1 reverse transcriptase mutants K103N and Y181C. In Tables 1 and 2 below, “w.t.” refers to results of the tested compounds run with the wildtype 1 and “w.t. assay 2” refers results of the tested compounds run with the wildtype on the same day as the testing of the compounds with the mutants. Thus, “w.t. assay 2” was run under the same conditions as the testing of the compounds with the mutants and provides a direct comparison with the results from the testing with the mutants.
(§2) Ten-point serial dilutions of compounds with half-log step size were generated in DMSO. AZT (5 μM) was used as the positive control and DMSO as the negative control. The Echo acoustic dispenser was used to deliver 200 nL of serially diluted compound into sterile 384 well tissue culture assay plates. Two million MT-4 cells were incubated with each of the 3 viruses at MOI of 0.0005 in separate 1 mL infection tubes for 1 hour at 37° C. The cells were diluted in cell culture medium (RPMI+10% FBS) to 50,000 cells/mL. The infected cells were added to 384 well assay plates containing serially dilute compounds. Assay plates were incubated for 5 days in a humidified incubator set at 37° C. and 5% CO2. To measure the cytopathic effect of HIV, 40 μL Cell TiterGlo was added to each well and the resulting luminescence signal is read with the Envision plate reader (Perkin Elmer). Data were normalized to positive and negative controls in each plate and expressed as % CPE Protection. EC50 values were defined as the compound concentration that caused a 50% […] in luminescence signal, and were calculated by non-linear regression using Pipeline Pilot software by applying a four parameter fit equation (Accelrys, San Diego, Calif.).
(§3) The high-throughput screening was also run for nevirapine (“NPV”), rilpivirine (“RPV”), and efavirenz (“EFV”). Nevirapine was obtained from Toronto Research Chemicals, Inc. (Toronto, Canada; Catalogue #N391275). Rilpivirine was obtained from Key Organics Ltd. (Camelford, Cornwall, United Kingdom; Catalogue #KE-0036). Efavirenz was obtained from Toronto Research Chemicals, Inc. (Toronto, Canada; Catalogue #E425000). Further details and background can be found in Janssen et al, J. Med. Chem, 2005, 48, 1901-1909; Das et al., Proc. Nat. Acad. Sci., 2008, vol., 105, no. 5, 1466-1471; and Kuroda et al., Nature Chemistry, 2013, DOI: 10.1038/NCHEM.1559.

[2] = system: HIV-1 HBX2 (wild type); assay: High throughput cytopathic effect assay in MT-4 cells, HIV-1 wild type
Excerpt: as §1, §2, §3

[3] = system: HIV-1 reverse transcriptase mutant Y181C; assay: High throughput cytopathic effect assay in MT-4 cells, HIV-1 RT mutant Y181C; conditions: for EC50: Human immunodeficiency virus 1, MT4, read-out: MT4 EC50 (nM) against Y181C; for FC against mutant Y181C: fold change of EC50, Y181C versus w.t. assay 2
Excerpt: as §1, §2, §3

[4] = target: T1, hERG channels (Homo sapiens, UniProt Q12809); assay: hERG assay, whole cell recordings in CHO cells stably expressing hERG channels; conditions: tail current, whole cell patch clamp
T1 construct: host or cells: CHO cells stably expressing hERG
T1 sequence (Q12809 whole entry): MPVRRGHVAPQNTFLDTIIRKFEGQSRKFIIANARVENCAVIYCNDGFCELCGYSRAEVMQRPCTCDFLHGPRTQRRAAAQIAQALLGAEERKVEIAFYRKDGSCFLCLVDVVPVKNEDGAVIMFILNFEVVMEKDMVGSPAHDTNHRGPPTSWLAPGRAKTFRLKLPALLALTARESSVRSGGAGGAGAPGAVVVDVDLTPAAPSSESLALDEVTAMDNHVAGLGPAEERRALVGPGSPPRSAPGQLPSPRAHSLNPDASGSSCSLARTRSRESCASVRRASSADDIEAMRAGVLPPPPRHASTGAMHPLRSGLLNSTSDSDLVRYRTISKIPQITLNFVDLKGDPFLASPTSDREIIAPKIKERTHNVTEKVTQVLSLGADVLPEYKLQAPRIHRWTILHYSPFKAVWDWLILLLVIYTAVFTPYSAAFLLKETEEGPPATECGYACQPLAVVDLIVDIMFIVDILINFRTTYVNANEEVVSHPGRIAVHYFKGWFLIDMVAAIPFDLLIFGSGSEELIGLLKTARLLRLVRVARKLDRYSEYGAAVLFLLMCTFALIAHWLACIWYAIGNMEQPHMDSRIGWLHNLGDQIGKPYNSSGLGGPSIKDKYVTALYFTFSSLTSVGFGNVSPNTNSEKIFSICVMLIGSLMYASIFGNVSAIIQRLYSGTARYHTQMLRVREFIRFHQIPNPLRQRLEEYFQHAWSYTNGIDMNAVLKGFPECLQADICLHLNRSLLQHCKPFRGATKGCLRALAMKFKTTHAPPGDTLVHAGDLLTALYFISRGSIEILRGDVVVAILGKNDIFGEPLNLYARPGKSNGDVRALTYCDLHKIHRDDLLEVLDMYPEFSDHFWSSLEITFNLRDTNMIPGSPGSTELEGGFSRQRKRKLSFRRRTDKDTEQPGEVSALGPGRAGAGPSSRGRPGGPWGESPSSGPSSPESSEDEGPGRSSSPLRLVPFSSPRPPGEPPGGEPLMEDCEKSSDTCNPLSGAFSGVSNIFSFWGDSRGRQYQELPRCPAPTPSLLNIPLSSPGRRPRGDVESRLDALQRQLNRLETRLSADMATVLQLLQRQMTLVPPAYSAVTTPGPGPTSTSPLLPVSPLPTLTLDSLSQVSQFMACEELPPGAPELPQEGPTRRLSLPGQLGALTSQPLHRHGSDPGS
Experimental: AVIVA's CHO cell line, which stably expresses hERG channels, was used for the study. Cells were cultured in DMEM/F12 containing 10% FBS, 1% penicillin/streptomycin and 500 μg/ml G418. Before testing, cells were harvested using Accumax (Innovative Cell Technologies).
For electrophysiological recordings, the following solutions were used:
External Solution: 2 mM CaCl2; 2 mM MgCl2; 4 mM KCl; 150 mM NaCl; 10 mM Glucose; 10 mM HEPES; 305-315 mOsm; pH 7.4 (adjusted with 5M NaOH.)
Internal Solution: 140 mM KCl; 10 mM MgCl2; 6 mM EGTA; 5 mM HEPES-Na; 5 mM ATP-Mg; 295-305 mOsm; pH 7.25 (adjusted with 1M KOH).
Whole cell recordings were performed using PX 7000A (Axon Instruments) with AVIVA's SealChip™ technology. Cells were voltage clamped at a holding potential of −80 mV. The hERG current was then activated by a depolarizing step to −50 mV for 300 ms. This first step at −50 mV was used as a baseline for measuring peak amplitude of the tail current. Next, a voltage step to +20 mV was applied for 5 s to activate the channels. Finally, a step back to −50 mV for 5 s removed activation and the deactivating tail current was recorded.
All test articles were prepared from 10 mM DMSO stock solutions. […]
After achieving whole cell configuration, cells were monitored for 90 s to assess stability and then washed with External Solution for 66 s. […]

[5] = Human immunodeficiency virus 1, MT4, 120 h, MT-4 cells, HIV-1 wild type, 5 days, CPE protection (Cell TiterGlo), read-out: MT4 EC50 (nM) against w.t.
[6] = Human immunodeficiency virus 1, MT4, read-out: MT4 EC50 (nM) against w.t. assay 2

SMILES	EC50 [1] [nM]	FC against mutant K103N [1]	EC50 [2, 5] [nM]	EC50 [2, 6] [nM]	EC50 [3] [nM]	FC against mutant Y181C [3]	hERG [4] [µM]
Cc1cc(/C=C/C#N)cc(C)c1-c1cccc2c(N)nc(Nc3ncc(C#N)cn3)cc12 [Compound 1, (E)-2-((1-Amino-5-(4-(2-cyanovinyl)-2,6-dimethylphenyl)isoquinolin-3-yl)amino)pyrimidine-5-carbonitrile]	6.4	1.4	6.4	4.5	51.6	11.5	–
Cc1cc(/C=C/C#N)cc(C)c1-c1cccc2c(N)nc(Nc3cnc(C#N)cn3)cc12 [Compound 2, (E)-5-((1-Amino-5-(4-(2-cyanovinyl)-2,6-dimethylphenyl)isoquinolin-3-yl)amino)pyrazine-2-carbonitrile]	29.7	1.5	14.4	20.2	109	5.4	–
Cc1cc(/C=C/C#N)cc(C)c1-c1cccc2c(N)nc(Nc3ccc(C#N)nn3)cc12 [Compound 3, (E)-6-((1-Amino-5-(4-(2-cyanovinyl)-2,6-dimethylphenyl)isoquinolin-3-yl)amino)pyridazine-3-carbonitrile]	36.4	1.6	17	22.7	174	7.7	–
Cc1cc(/C=C/C#N)cc(C)c1-c1cccc2c(N)nc(Nc3ccc(C#N)cn3)cc12 [Compound 4, (E)-6-((1-Amino-5-(4-(2-cyanovinyl)-2,6-dimethylphenyl)isoquinolin-3-yl)amino)nicotinonitrile]	3.7	1.0	2.8	3.6	12	3.4	3
Cc1cc(/C=C/C#N)cc(C)c1-c1cccc2cnc(Nc3ccc(C#N)cn3)cc12 [Compound 5, (E)-6-((5-(4-(2-Cyanovinyl)-2,6-dimethylphenyl)isoquinolin-3-yl)amino)nicotinonitrile]	4.7	1.0	4.2	4.7	12	2.5	–
Cc1cc(/C=C/C#N)cc(C)c1-c1cccc2cnc(Nc3ccc(C#N)cc3)cc12 [Compound 6, (E)-4-((5-(4-(2-Cyanovinyl)-2,6-dimethylphenyl)isoquinolin-3-yl)amino)benzonitrile]	–	–	12.9	–	–	–	–
O=C1Nc2ccc(Cl)cc2[C@@](C#CC2CC2)(C(F)(F)F)O1 [Efavirenz, efavirenz, reference compound]	46.4	28.9	1.3	1.6	3.8	2.3	–
Cc1ccnc2c1NC(=O)c1cccnc1N2C1CC1 [Nevirapine, nevirapine, reference compound]	–	–	65	–	–	–	–
Cc1cc(/C=C/C#N)cc(C)c1Nc1ccnc(Nc2ccc(C#N)cc2)n1 [Rilpivirine, rilpivirine, reference compound]	1.5	1.2	0.9	1.3	3.8	3.1	0.5
